According to US20220146519A1, “INTEGRIN ALPHA V BETA 3 TARGETING PROBE FOR DIAGNOSING RETINOCHOROIDAL NEOVASCULAR DISEASES AND PREPARATION METHOD THEREFOR” (SEOUL NATIONAL UNIVERSITY HOSPITAL, priority 2019, published 2022):
“Also recorded” adds a separate entry of the source.

Experiments:
[1] = tested on: integrin αvβ3; assay: Specificity of FITC-D-[c(RGDfK)]2 staining evaluated with excess cRGD peptides; type: binding, mouse; details: 10 nM probe; 2-hour incubation with 200 nM (20-fold) cRGD before staining; choroidal flatmount
Sequence of integrin αvβ3 (P43406 31-885 limits assumed): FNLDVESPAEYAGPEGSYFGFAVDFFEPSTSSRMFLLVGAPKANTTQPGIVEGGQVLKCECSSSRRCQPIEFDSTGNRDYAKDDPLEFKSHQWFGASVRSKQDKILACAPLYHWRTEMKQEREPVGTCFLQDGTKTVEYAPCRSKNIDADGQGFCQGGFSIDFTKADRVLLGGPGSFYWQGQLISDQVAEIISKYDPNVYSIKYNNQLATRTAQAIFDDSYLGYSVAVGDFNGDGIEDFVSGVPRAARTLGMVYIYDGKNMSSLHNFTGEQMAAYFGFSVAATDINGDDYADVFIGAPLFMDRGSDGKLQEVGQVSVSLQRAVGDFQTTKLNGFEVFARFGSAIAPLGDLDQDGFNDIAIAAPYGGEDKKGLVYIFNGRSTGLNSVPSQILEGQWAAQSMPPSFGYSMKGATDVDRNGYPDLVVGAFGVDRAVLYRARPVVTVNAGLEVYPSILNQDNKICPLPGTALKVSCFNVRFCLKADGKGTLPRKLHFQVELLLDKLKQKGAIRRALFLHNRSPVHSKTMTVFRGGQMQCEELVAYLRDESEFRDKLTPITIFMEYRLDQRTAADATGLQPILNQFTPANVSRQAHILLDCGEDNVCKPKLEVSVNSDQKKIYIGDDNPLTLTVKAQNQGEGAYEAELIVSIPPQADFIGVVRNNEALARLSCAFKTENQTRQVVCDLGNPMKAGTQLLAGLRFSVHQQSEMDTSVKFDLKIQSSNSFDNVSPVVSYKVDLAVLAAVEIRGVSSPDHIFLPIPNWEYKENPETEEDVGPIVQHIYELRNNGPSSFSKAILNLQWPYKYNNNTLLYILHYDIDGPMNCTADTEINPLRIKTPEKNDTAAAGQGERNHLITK
Sequence of integrin αvβ3 (P43406 887-1044 partner limits assumed): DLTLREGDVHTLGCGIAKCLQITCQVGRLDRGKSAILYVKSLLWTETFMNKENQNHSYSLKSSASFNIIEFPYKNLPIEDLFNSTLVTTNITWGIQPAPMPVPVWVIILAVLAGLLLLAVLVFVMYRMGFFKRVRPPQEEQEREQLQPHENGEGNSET
Sequence of integrin αvβ3 (O54890 26-787, further chain): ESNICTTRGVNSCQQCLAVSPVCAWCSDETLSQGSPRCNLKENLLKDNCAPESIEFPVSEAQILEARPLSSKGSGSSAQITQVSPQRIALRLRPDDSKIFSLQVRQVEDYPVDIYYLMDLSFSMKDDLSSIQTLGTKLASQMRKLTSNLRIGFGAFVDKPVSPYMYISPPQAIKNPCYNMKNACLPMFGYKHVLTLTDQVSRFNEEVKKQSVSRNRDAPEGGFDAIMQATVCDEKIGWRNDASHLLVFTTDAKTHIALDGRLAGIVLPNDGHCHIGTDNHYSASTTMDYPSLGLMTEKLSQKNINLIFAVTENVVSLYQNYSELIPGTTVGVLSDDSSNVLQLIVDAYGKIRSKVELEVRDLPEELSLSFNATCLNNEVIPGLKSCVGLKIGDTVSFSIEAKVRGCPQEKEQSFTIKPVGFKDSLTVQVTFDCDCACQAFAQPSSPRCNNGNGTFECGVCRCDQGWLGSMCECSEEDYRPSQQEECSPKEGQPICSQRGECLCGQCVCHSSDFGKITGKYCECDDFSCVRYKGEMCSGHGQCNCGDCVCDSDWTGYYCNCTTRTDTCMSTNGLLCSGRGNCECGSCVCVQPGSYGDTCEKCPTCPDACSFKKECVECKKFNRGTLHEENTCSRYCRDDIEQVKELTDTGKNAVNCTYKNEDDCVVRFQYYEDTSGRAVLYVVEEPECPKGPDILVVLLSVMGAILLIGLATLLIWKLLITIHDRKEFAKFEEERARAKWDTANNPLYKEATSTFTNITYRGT
Experimental: Additionally, the specificity of FITC-D-[c(RGDfK)]2 staining was evaluated by using an excess of cRGD peptides. For this experiment, one mouse with identical laser-induced choroidal neovascularization in both eyes was sacrificed. One eye of the mouse was stained with the staining method described above using 10 nM of FITCD-[c(RGDfK)]2. The other eye was stained with the staining method described above plus a 2-hour incubation with excess cRGD peptides (for example, 20-fold molar concentration of the FITC-conjugated cRGD dimer, i.e., 200 nM) prior to the fluorescence staining. In this staining, the present inventors used an integrin αvβ3 antibody to investigate if the staining with the integrin αvβ3 antibody co-localized with that of the FITC-conjugated cRGD dimer.

[2] = tested on: integrin αvβ3; assay: Fluorescence staining of vessels in retinal and choroidal flatmounts using FITC-labeled RGD peptide; design: species or system mouse; details: for staining of choroidal neovascularization lesions (laser-treated areas): ex vivo choroidal flatmount, 7 days after laser-induced choroidal neovascularization, C57BL/6 mice
Experimental: After intravenous anesthesia using a 1:1 mixture of 100 mg/mL ketamine and 20 mg/mL xylazine and pupillary dilatation using 5.0% phenylephrine and 0.8% tropicamide, C57BL/6 mice were placed on the Mayo stand (Coherent PC-920 Argon Ion Laser System; Coherent Medical Laser, Santa Clara, Calif.). Choroidal neovascularization was induced using 512-nm argon laser photocoagulation, with 100 urn of spot size and 100 mW of power for 0.1 s in the right eye. Five lesions of about 2-3 disc diameters were generated from the optic disc. The formation of bubbles upon laser delivery can be considered sufficient damage to induce rupture of Bruch's membrane and choroidal neovascularization. When subretinal hemorrhage occurred after the laser treatment, the mice were excluded from the experiment.
Ten eyes were prepared as choroidal flatmounts. For the flatmounts, mice were anesthetized at days 7 or 14 and eyes were enucleated and fixed with 4% paraformaldehyde for 30 min at 4° C. The anterior segment and retina were removed from the eyecup, and four radial incisions were made. The remaining retinal pigment epithelium (RPE)-choroid-sclera complex was flatmounted and coverslipped. Flatmounts were examined with a scanning laser confocal microscope (LSM710; Carl Zeiss, Oberkochen, Germany). […]
Fluorescence staining with FITC-D-[c(RGDfK)]^2 was performed as follows: • (1) the retinal and choroidal flatmounts were washed with PBS and incubated with FITC-D-[c(RGDfK)]2 for 30 minutes; • (2) the slides were washed with PBS several times, counterstained with 4′,6-diamidino-2-phenylindole (DAPI), and mounted with ProLong Gold anti-fade reagent (Life Technologies, Carlsbad, Calif., USA); • (3) and after staining, the flatmounts were mounted with the vitreous side up on glass slides and visualized on a confocal microscope (LSM710; Carl Zeiss, Oberkochen, Germany).

## FITC-D-[c(RGDfK)]2 [FITC-labeled cyclic RGD peptide]
[1]
  fluorescence of probe after pre-incubation with excess cRGD: remarkably reduced
[2]
  staining of choroidal neovascularization lesions (laser-treated areas): intense immunofluorescence staining; also recorded: allowed the visualization of choroidal neovascularization at laser-treated areas
[2]; listed as FITC-labeled RGD peptide
  staining of choroidal neovascularization lesions (laser-treated areas): laser-treated lesion stained with FITC-labeled RGD peptide corresponded to that stained with lectin
[2]; ex vivo untreated retina flatmount, lectin-positive normal vessels
  staining of normal vessels in the retina: barely stained
